Measurements published in the NIST ThermoML archive (doi:10.1021/je3011979).

Legend:
[1] = refractive index (Na D-line) (dimensionless); conditions: 101.33 kPa, Liquid, Standard Abbe refractometry
[2] = Liquid; for mass density: 101 kPa, Vibrating tube method; for vapor or sublimation pressure: Ebulliometric method (Recirculating still)
[3] = xn = mol fraction of the nth substance listed; conditions: 101 kPa, Liquid, Vibrating tube method
[4] = excess molar enthalpy (molar enthalpy of mixing); xn = mol fraction of the nth substance listed; conditions: 291.15 K, 101 kPa, Liquid, Calvet calorimetry

CCCCCCCCCC [decane]
Conditions | mass density, 291.15 K [kg/m3] | mass density, 298.15 K [kg/m3] | mass density, 318.15 K [kg/m3] | mass density, 328.15 K [kg/m3] | refractive index, 298.15 K | refractive index, 318.15 K | vapor or sublimation pressure, 447.27 K [kPa]
[1] | – | – | – | – | 1.4096 | 1.4008 | –
[2] | 731.2 | 726.2 | 710.9 | 703.3 | – | – | 101.32

CCCCCCCCCC [decane] + CCCOC(C)=O
[3], x2 = 0
Conditions | mass density [kg/m3]
291.15 K | 731.2
298.15 K | 726.2
318.15 K | 710.9
328.15 K | 703.3

CCCCCCC [heptane]
Conditions | mass density, 291.15 K [kg/m3] | mass density, 298.15 K [kg/m3] | mass density, 318.15 K [kg/m3] | mass density, 328.15 K [kg/m3] | refractive index, 298.15 K | refractive index, 318.15 K | vapor or sublimation pressure, 371.55 K [kPa]
[1] | – | – | – | – | 1.3852 | 1.3748 | –
[2] | 685.3 | 679.5 | 662.1 | 653.7 | – | – | 101.32

CCCCCCC [heptane] + CCCOC(C)=O
[3], x2 = 0
Conditions | mass density [kg/m3]
291.15 K | 685.3
298.15 K | 679.5
318.15 K | 662.1
328.15 K | 653.7

CCCCCC [hexane]
Conditions | mass density, 291.15 K [kg/m3] | mass density, 298.15 K [kg/m3] | mass density, 318.15 K [kg/m3] | mass density, 328.15 K [kg/m3] | refractive index, 298.15 K | refractive index, 318.15 K | vapor or sublimation pressure, 341.89 K [kPa]
[1] | – | – | – | – | 1.3723 | 1.3615 | –
[2] | 661.2 | 654.8 | 636.7 | 627.2 | – | – | 101.32

CCCCCC [hexane] + CCCOC(C)=O
[3], x2 = 0
Conditions | mass density [kg/m3]
291.15 K | 661.2
298.15 K | 654.8
318.15 K | 636.7
328.15 K | 627.2

CCCCCCCCC [nonane]
Conditions | mass density, 291.15 K [kg/m3] | mass density, 298.15 K [kg/m3] | mass density, 318.15 K [kg/m3] | mass density, 328.15 K [kg/m3] | refractive index, 298.15 K | refractive index, 318.15 K | vapor or sublimation pressure, 423.94 K [kPa]
[1] | – | – | – | – | 1.4031 | 1.3938 | –
[2] | 719.2 | 713.9 | 698.1 | 690.2 | – | – | 101.32

CCCCCCCCC [nonane] + CCCOC(C)=O
[3], x2 = 0
Conditions | mass density [kg/m3]
291.15 K | 719.2
298.15 K | 713.9
318.15 K | 698.1
328.15 K | 690.2

CCCCCCCC [octane]
Conditions | mass density, 291.15 K [kg/m3] | mass density, 298.15 K [kg/m3] | mass density, 318.15 K [kg/m3] | mass density, 328.15 K [kg/m3] | refractive index, 298.15 K | refractive index, 318.15 K | vapor or sublimation pressure, 398.85 K [kPa]
[1] | – | – | – | – | 1.3952 | 1.3855 | –
[2] | 704.1 | 698.6 | 682.2 | 674.1 | – | – | 101.32

CCCCCCCC [octane] + CCCOC(C)=O
[3], x2 = 0
Conditions | mass density [kg/m3]
291.15 K | 704.1
298.15 K | 698.6
318.15 K | 682.2
328.15 K | 674.1

CCCCC [pentane]
Conditions | mass density, 291.15 K [kg/m3] | mass density, 298.15 K [kg/m3] | refractive index, 298.15 K | vapor or sublimation pressure, 309.24 K [kPa]
[1] | – | – | 1.3545 | –
[2] | 628.2 | 621.4 | – | 101.32

CCCCC [pentane] + CCCOC(C)=O
mass density [kg/m3], [3]
Conditions | 291.15 K | 298.15 K
x2 = 0 | 628.2 | 621.4
x2 = 0.0101 | – | 623.7
x2 = 0.0121 | 631.2 | –
x2 = 0.0346 | – | 629.8
x2 = 0.0427 | 638.8 | –
x2 = 0.0754 | – | 640
x2 = 0.078 | 647.7 | –
x2 = 0.1377 | – | 655.9
x2 = 0.1417 | 664 | –
x2 = 0.1977 | – | 671.4
x2 = 0.2048 | 680.3 | –
x2 = 0.2734 | 698.2 | –
x2 = 0.283 | – | 693.6
x2 = 0.3338 | 714.1 | –
x2 = 0.3439 | – | 709.7
x2 = 0.3934 | 729.8 | –
x2 = 0.4072 | – | 726.4
x2 = 0.4636 | 748.4 | –
x2 = 0.4881 | – | 747.7
x2 = 0.5218 | – | 756.5
x2 = 0.5224 | 763.9 | –
x2 = 0.5876 | 781.1 | –
x2 = 0.5968 | – | 776.4
x2 = 0.6565 | 799.3 | 792.1
x2 = 0.7085 | – | 805.9
x2 = 0.7136 | 814.4 | –
x2 = 0.7697 | 829.2 | –
x2 = 0.8277 | 844.6 | –
x2 = 0.8437 | – | 841.6
x2 = 0.8911 | 861.3 | –
x2 = 0.9205 | – | 861.8
x2 = 0.923 | 869.7 | –

[4]
Conditions | excess molar enthalpy [kcal/mol]
x2 = 0.0667 | 0.0535
x2 = 0.1334 | 0.097
x2 = 0.2047 | 0.147
x2 = 0.2753 | 0.186
x2 = 0.3414 | 0.2185
x2 = 0.4028 | 0.2361
x2 = 0.461 | 0.2452
x2 = 0.5088 | 0.2464
x2 = 0.5257 | 0.245
x2 = 0.5824 | 0.2326
x2 = 0.6434 | 0.2141
x2 = 0.7089 | 0.188
x2 = 0.7812 | 0.152
x2 = 0.8537 | 0.107
x2 = 0.9242 | 0.0595

CCCOC(C)=O [propyl ethanoate]
Conditions | mass density [kg/m3] | refractive index | vapor or sublimation pressure [kPa]
[1], 298.15 K | – | 1.3818 | –
[1], 318.15 K | – | 1.372 | –
[2], 291.15 K | 889.6 | – | –
[2], 298.15 K | 882.5 | – | –
[2], 318.15 K | 859.8 | – | –
[2], 318.35 K | – | – | 12.14
[2], 322.19 K | – | – | 14.43
[2], 325.87 K | – | – | 17.04
[2], 328.15 K | 848.3 | – | –
[2], 328.95 K | – | – | 19.43
[2], 331.59 K | – | – | 21.77
[2], 334.22 K | – | – | 24.29
[2], 336.6 K | – | – | 26.79
[2], 338.75 K | – | – | 29.12
[2], 340.72 K | – | – | 31.53
[2], 342.66 K | – | – | 33.96
[2], 344.52 K | – | – | 36.46
[2], 346.15 K | – | – | 38.78
[2], 347.73 K | – | – | 41.14
[2], 349.35 K | – | – | 43.69
[2], 350.81 K | – | – | 46.08
[2], 352.19 K | – | – | 48.41
[2], 353.57 K | – | – | 50.84
[2], 354.78 K | – | – | 53.11
[2], 356.03 K | – | – | 55.48
[2], 357.29 K | – | – | 57.96
[2], 358.41 K | – | – | 60.24
[2], 359.52 K | – | – | 62.59
[2], 360.63 K | – | – | 65
[2], 361.71 K | – | – | 67.41
[2], 362.73 K | – | – | 69.74
[2], 363.81 K | – | – | 72.28
[2], 364.84 K | – | – | 74.8
[2], 365.86 K | – | – | 77.35
[2], 366.81 K | – | – | 79.8
[2], 367.7 K | – | – | 82.11
[2], 368.62 K | – | – | 84.58
[2], 369.51 K | – | – | 87.01
[2], 370.41 K | – | – | 89.57
[2], 371.18 K | – | – | 91.8
[2], 371.99 K | – | – | 94.17
[2], 372.78 K | – | – | 96.55
[2], 373.55 K | – | – | 98.87
[2], 373.97 K | – | – | 100.18
[2], 374.34 K | – | – | 101.32
[2], 374.52 K | – | – | 101.32
[2], 375.1 K | – | – | 103.76
[2], 375.78 K | – | – | 106.19
[2], 376.51 K | – | – | 108.56
[2], 377.29 K | – | – | 111.14
[2], 377.98 K | – | – | 113.47
[2], 378.69 K | – | – | 115.96
[2], 379.36 K | – | – | 118.3
[2], 380.04 K | – | – | 120.71
[2], 380.74 K | – | – | 123.19
[2], 381.41 K | – | – | 125.61
[2], 382.06 K | – | – | 128.01
[2], 382.71 K | – | – | 130.42
[2], 383.34 K | – | – | 132.85
[2], 384.01 K | – | – | 135.42
[2], 384.55 K | – | – | 137.67
[2], 385.18 K | – | – | 140.04
[2], 385.79 K | – | – | 142.47
[2], 386.36 K | – | – | 144.8
[2], 386.9 K | – | – | 147.09
[2], 387.49 K | – | – | 149.51
[2], 388.06 K | – | – | 151.96
[2], 388.63 K | – | – | 154.37
[2], 389.16 K | – | – | 156.68
[2], 389.68 K | – | – | 158.99
[2], 390.18 K | – | – | 161.23
[2], 390.68 K | – | – | 163.46
[2], 391.22 K | – | – | 165.89
[2], 391.7 K | – | – | 168.13
[2], 392.24 K | – | – | 170.62
[2], 392.73 K | – | – | 172.98
[2], 393.23 K | – | – | 175.35
[2], 393.71 K | – | – | 177.64
[2], 394.16 K | – | – | 180.01
[2], 394.66 K | – | – | 182.44
[2], 395.17 K | – | – | 185.03
[2], 395.67 K | – | – | 187.59
[2], 396.16 K | – | – | 190.1
[2], 396.69 K | – | – | 192.76

CCCOC(C)=O [propyl ethanoate] + CCCCC
[3], x1 = 1
Conditions | mass density [kg/m3]
291.15 K | 889.6
298.15 K | 882.5
